Data from patent US20150374725A1, “METHODS AND COMPOSITIONS FOR TREATING AND PREVENTING INTESTINAL INJURY AND DISEASES RELATED TO TIGHT JUNCTION DYSFUNCTION” (PRELIEF INC., priority 2013, published 2015).

What was measured:
[1] = test system: Caco-2 cells; test: Baseline trans-epithelial electrical resistance (TEER); assay type: cell-based, human
[2] = test system: Caco-2 cells; test: Baseline E-cadherin expression; assay type: cell-based, human
Experimental: (3) E-Cadherin Expression:
E-cadherin is the principle protein of tight junctions. The level of E-cadherin is measured in homogenized Caco-2 cells by western blot analysis using commercially available antibodies. Since it is possible that E-cadherin might be expressed as a protein, but sequestered away from the cell membrane, surface E-cadherin is also measured using either flow cytometry or fluorescent microscopy. The ratio of surface to total E-cadherin is calculated. The expression levels of E-cadherin are measured in Caco-2 cells in the presence and absence of CGP. The expression levels of other proteins of tight junctions in Caco-2 cells in the presence or absence of CGP can also be measured using methods known in the art in view of the present disclosure.

[3] = test system: Caco-2 cells; test: Transepithelial mannitol flux induced by cytomix; assay type: cell-based, human; settings: cytomix plus CGP, FIG. 7
Experimental: The effect of exogenous cytokines was measured for each parameter in the presence and absence of CGP. […] Cells were grown to confluence on transwell inserts, then challenged with a mixture of the cytokines TNFα (tumor necrosis factor alpha), ILβ (interleukin beta), and IFγ (interferon gamma) (“cytomix”) in the presence or absence of increasing concentrations of CGP. At the appropriate time points, apical to basolateral mannitol flux was measured. TEER, E-Cadherin expression and media concentrations of S1P were measured in separate experiments.

[4] = test system: Caco-2 cells; test: Apical to basolateral [14C]mannitol flux during hypoxia; assay type: cell-based, human; settings: FIG. 5
Experimental: (§1) The effect of hypoxia on transepithelial permeability was measured for each parameter in the presence and absence of CGP. Cells were grown to confluence in normoxic conditions on transwell inserts, then transferred to a hypoxia chamber (95% N2/5% CO2) and media was changed to one sparged with 95% N2/5% CO2 and containing no glucose. Under these conditions, which simulate ischemia, the partial pressure of residual oxygen is less than 25 mm Hg (6%). Control wells contained only media; the remaining wells contained increasing concentrations of calcium glycerophosphate. TEER and mannitol flux were measured in the hypoxia chamber. E-Cadherin expression or S1P determination was determined in room air using samples prepared in the hypoxia chamber. Hypoxia may decrease TEER and S1P, increase both apical to basolateral and basolateral to apical mannitol flux without changing E-cadherin expression. These effects may be mitigated by CGP.
Hypoxia/ischemia is a state of diminished oxygen and nutrient supply such that cellular demands are not met. […] It was hypothesized that the increased transepithelial permeability is the consequence of intestinal hypoxia (itself a consequence of diversion of blood flow from the gut during heavy exercise), and that the permeability might be alleviated by CGP treatment. […]

[5] = test system: Caco-2 cells; test: Baseline sphingosine 1-phosphate in media by ELISA; assay type: cell-based, human; settings: 24 hours incubation, increasing concentrations of CGP, FIG. 3
Experimental: It is believed that CGP elevates S1P concentrations by inhibiting dephosphorylation. S1P concentrations are measured in the media of Caco-2 cells using a commercially available ELISA kit (e.g., Echelon Catalog # K-1900). The S1P concentrations are measured in the media of Caco-2 cells in the presence and absence of CGP. Cells were incubated for 24 hours in the presence of increasing concentrations of CGP. The media was removed and assayed for […] by enzyme-linked immunoassay (ELISA).

[6] = test system: Caco-2 cells; test: TEER during hypoxia; assay type: cell-based, human; settings: FIG. 6
Experimental: as §1
Hypoxia/ischemia is a state of diminished oxygen and nutrient supply such that cellular demands are not met. […]
For these studies, cells were grown on transwells until confluent, as measured by TEER values of […]. As there is some variability in baseline TEER, all data have been expressed as a % of baseline TEER. […]

[7] = test system: Caco-2 cells; test: TEER during cytomix treatment; assay type: cell-based, human; settings: FIG. 8
Experimental: The effect of exogenous cytokines was measured for each parameter in the presence and absence of CGP. Both hypoxia and celiac disease are characterized by the release of cytokines by cells of the immune system. These inflammatory mediators increase monolayer permeability (M. Bayardo et al. Clin Exp Immunol.; 168(1):95-104 (2012)). Cells were grown to confluence on transwell inserts, then challenged with a mixture of the cytokines TNFα (tumor necrosis factor alpha), ILβ (interleukin beta), and IFγ (interferon gamma) (“cytomix”) in the presence or absence of increasing concentrations of CGP. At the appropriate time points, apical to basolateral mannitol flux was measured. TEER, E-Cadherin expression and media concentrations of S1P were measured in separate experiments. […] Exogenous cytokines may decrease TEER and increase mannitol flux.
Cytokines are a category of small proteins that are important in cell-cell signaling. There are many types and functions of cytokines. Three of the cytokines, TNFα (tumor necrosis factor alpha), ILβ (interleukin beta), and IFγ (interferon gamma) are involved in cell signaling during inflammation. […] First, neutrophils and other cells mediating the immune response are recruited to ischemic tissue. Second, the intestinal damage of celiac disease is dependent on inflammation. […]

[8] = test system: Caco-2 cells; test: Baseline mannitol flux across Caco-2 monolayers on transwell inserts; assay type: cell-based, human; settings: increasing concentrations of CGP, FIG. 1
Experimental: Experiments were conducted on Caco-2 cells, a line of heterogeneous human epithelial colorectal adenocarcinoma cells derived from a colorectal carcinoma and grown on transwell permeable inserts. Despite their origins, in culture these cells express the characteristics of small intestinal enterocytes upon prolonged culture (C. Jumarie et al. J Cell. Physiol. 149: 24-33, (1991)). They are widely used as a model of transepithelial transport in the small intestine, and are considered a model for celiac disease (G. Iacomino et al. J Agric Food Chem. 6; 61(5):1088-962013 (2013); I. Caputo et al. PLoS One. 7(9):e45209 (2012); T. Rauhavirta et al. J Clin Immunol.; 33(1):134-42 (2013)).
The TEER results are verified by measuring the flux of mannitol, a polyhydroxy alcohol, across the cell monolayer. Mannitol flux is exclusively by the paracellular route, so that its movement is inversely proportional to the tightness of the tight junctions. Flux is measured in both apical to basolateral and basolateral to apical directions. The rate of flux is used to calculate a permeability coefficient for the monolayers. […]
Baseline values were obtained for each of these parameters in unstimulated cells in the presence and absence of increasing concentrations of CGP. The time course of TEER development, as well as the appropriate concentration of CGP, was determined experimentally. […]

[9] = Solubility in water; assay type: physicochemical
[10] = test system: Caco-2 cells; test: Mannitol Flux Assay under ischemia-mimicking conditions (no glucose, 1% oxygen); assay type: cell-based, human
Experimental: Mannitol Flux Assay was performed as follows. At the start of the experiment (time 0), the media on the cells was changed to one containing no glucose and no fetal calf serum, and the environment was changed from 95% […]/5% CO2, to 1% oxygen, 5% CO2 and 94% nitrogen. These conditions mimic ischemia (no food, no oxygen).
It was observed that cells responded to the ischemia conditions by letting go of non-essential functions, like maintaining tight junctions. It appears that by adding CGP, the cells were able to retain tight junction integrity for a longer period of time.
Specifically, Table 2 and FIG. 4 show the percentage increase in mannitol penetration at two and four hours after CGP administration. The movement of mannitol is inversely proportional to the tightness of the tight junctions. It can be seen that the magnitude of the increase in tightness of the tight junctions (or decrease in mannitol flux) was proportional to the concentration of CGP in the media. While it is possible that the cells are merely using the glycerol phosphate to replace glucose, this is extremely unlikely, as the effect persists even at 0.000001 molar CGP. The usual glucose concentration in the media is around 10 mM, ten times greater than the highest CGP concentration, and 10,000 times greater than the lowest concentration of CGP.

[11] = test system: cultured enterocytes; settings: cited from earlier work

O=P([O-])([O-])OCC(O)CO.[Ca+2] (centres unmarked) [CGP, 1,2,3-propanetriol, mono(dihydrogen phosphate) calcium salt (1:1)]
persistence of the CGP effect on baseline TEER ([1]; FIG. 2): gone by four hours | effect on the citrate-induced reduction in baseline TEER ([1]; FIG. 2, noticeable at two hours): prevented | effect on E-Cadherin expression [2]: may increase, but most likely does not change | effect on cytomix-induced increase in mannitol permeability [3]: delayed the permeability increase in a concentration-dependent manner | time dependence of the effect on hypoxia induced mannitol flux [4]: diminished by four hours and absent by five hours | effect on hypoxia induced mannitol flux ([4]; concentration dependent): significantly reduced | effect on sphingosine 1-phosphate concentrations in the media [5]: does not appear to have any effect | effect on TEER during hypoxia (% of baseline TEER) [6]: preserved TEER in a concentration dependent manner | time dependence of the effect on TEER during hypoxia [6]: by five hours there was no longer a discernible effect | CGP effect on TEER ([7]; 24 hours): all CGP effect was lost | TEER versus cytomix alone and control ([7]; ten hours, all CGP treated groups except 1 μM): significantly greater than cytomix alone and not different from control | effect on baseline mannitol flux across the barrier [8]: no significant effect | solubility in water [9]: approximately 1 gram in 100 mL | mannitol penetration, Disintegrations Per Minute ([10]; CGP 0.000001 M, 2 hours): 77.04 Disintegrations Per Minute | mannitol penetration, Disintegrations Per Minute ([10]; CGP 0.000001 M, 4 hours): 275.0632 Disintegrations Per Minute | mannitol penetration, Disintegrations Per Minute ([10]; CGP 0.00001 M, 2 hours): 67.95 Disintegrations Per Minute | mannitol penetration, Disintegrations Per Minute ([10]; CGP 0.00001 M, 4 hours): 195.9237 Disintegrations Per Minute | mannitol penetration, Disintegrations Per Minute ([10]; CGP 0.0001 M, 2 hours): 50.47 Disintegrations Per Minute | mannitol penetration, Disintegrations Per Minute ([10]; CGP 0.0001 M, 4 hours): 188.7996 Disintegrations Per Minute | mannitol penetration, Disintegrations Per Minute ([10]; CGP 0.001 M, 2 hours): 23.11 Disintegrations Per Minute | mannitol penetration, Disintegrations Per Minute ([10]; CGP 0.001 M, 4 hours): 150.2845 Disintegrations Per Minute | lowest CGP concentration at which the effect on mannitol penetration persists ([10]; ischemia-mimicking conditions, Table 2 and FIG. 4): 1000 nM

CCCCCCCCCCCCC/C=C/[C@@H](O)[C@@H](N)COP(=O)(O)O [S1P, sphingosine-1-phosphate]
effect on tightness of existing tight junctions [11]: increases
